Measurements as given in article PMC8267177, “Cyclic Peptoid-Peptide Hybrids as Versatile Molecular Transporters” (Frontiers in Chemistry, 2021).
“Also recorded” adds a separate entry of the source. Non-standard residues stand in square brackets, D forms with d. Residues, ends and D or L forms follow the SMILES beside them. *: point of attachment. RhodamineB = CCN(CC)c1ccc2c(-c3ccccc3C(=O)*)c3ccc(=[N+](CC)CC)cc-3oc2c1; Gly(Nα-4-Cl-benzyl) = O=C(O)CNCc1ccc(Cl)cc1; Nphe = O=C(O)CNCc1ccccc1; NBuGly = CCCCNCC(=O)O; Nlys = NCCCCNCC(=O)O

Columns and labels:
[1] = in vitro; type: cell-based; settings: human
Procedure: The cytotoxicity of the macrocyclic hybrids 15–24, as well as their conjugates 15-Rhod to 24-Rhod, was examined using a standard MTT assay in human epithelial cervix carcinoma (HeLa) cells. […] ([Mosmann, 1983]; [Tolosa et al., 2015]) After treatment of HeLa cells with different concentrations of the respective macrocycles 15–24 (0.50─50 µM) for 72 h, no significant cytotoxic effects were observed. […] As shown by many research groups that Rhodamine B by itself is not efficiently entering the cells showing therefore an LD50 > 50 μM, we assume that this the toxicity of the Rhodamine moiety might be higher when increasingly localizing in the mitochondria to a higher amount.
In a 96-well plate (Corning® Costar® 3596 96-Well Cell Culture Cluster), 1.0 × 10^4 HeLa-cells per well of a 96 well plate were cultivated for 16 h. Stock solutions of the single compounds in dimethylsulfoxide were diluted to 0.50 µm, 5.00 µm, and 50.0 µm with cell culture medium (DMEM + 10% FBS + 1% P/S) to ensure a final concentration of DMSO below 0.5%. 100 µL of the prepared DMEM diluted compounds were added to each well and the cells were incubated for 72 h. All experiments were performed in triplicates. Cells that were solely treated with the culture medium containing 0.5% of DMSO served as a negative control. After incubation, the positive control (cells in DMSO plus 0.5% DMSO) was treated with 1% Triton-X. To determine the viability of the cells 20 µL of a freshly prepared solution of 3-(4,5-dimethylthiazol-2-yl)-2,5-diphenyltetrazolium bromide (MTT, 2.73 mg/mL, Sigma-Aldrich®) in culture medium were added to each well and incubated at 37 °C for 4 h. The reaction was stopped using 100 µL of Solubilization Solution / Stop Mix (CellTiter 96® Non-Radioactive Cell Proliferation Assay, Promega). After 24 h, the absorption (A) of every well at 595 nm was monitored using a 96-well plate reader (Ultra Microplate Reader ELx808, Biotech Instruments Inc.).

[2] = system: HeLa cells; assay: Localization assay: cellular uptake and organellar localization by confocal microscopy; type: cell-based, human; settings: 5 µM, 5 h, 37 °C; for Cellular uptake efficiency: confocal microscopy of Rhodamine B fluorescence (Exc 532 nm, Em 570–620 nm); for Organellar localization (mitochondria): counterstaining with MitoTracker Green, confocal microscopy
Procedure: As 15-Rhod to 24-Rhod were not toxic at 5 µM the following transport experiments were carried out using this concentration. To study their cellular uptake and organellar localization, HeLa cells were treated with 5 µM of the cyclic conjugates 15-Rhod to 24-Rhod for 5 h and eventually imaged using confocal microscopy (for experimental details, see supplemental Material).
FIGURE 4 Localization of the macrocyclic conjugates 15-Rhod to 24-Rhod in HeLa cells. After incubation with a 5.0 µM solution of the respective transporters for 5 h, the cellular uptake was monitored via fluorescent confocal microscopy (Rhodamine B labeled hybrids: λ Exc = 532 nm, λ Em = 570–620 nm; MitoTracker® Green: λ Exc = 488 nm, λ Em = 490–540 nm; Hoechst 33,342: λ Exc = 405 nm, λ Em = 430–490 nm). Counterstaining with MitoTracker® Green visualized mitochondria (green). Staining with 2 μg/ml Hoechst 33,342 indicated nuclei (blue). Scale bar: 10 µm.
In an 8-well chamber slide (µ-Slide 8-Well ibidiTreat, ibidi®), 1.0 × 10^4 HeLa cells per well were cultivated for 16 h. The cyclic hybrids were diluted with DMEM to yield a 5 µM concentration. The cells were treated with the hybrids for 5 h at 37 °C. To monitor the intracellular localization, the cells were counterstained with MitoTracker® (Invitrogen) and 2 µg/mL Hoechst 33342. After washing with DPBS (3 ×), the luminescence was monitored via life-cell imaging using a Leica TCS-SPE confocal microscope (DM2500 inverse microscope, 8 Bit resolution, 1024 × 1024 pixels), equipped with a 1 Airy pinhole aperture (111.5 µm), ACS APO 63.0x/1.30 OIL UV and 40x/1.14 OIL UV objectives and the images were processed by the Leica Application Suite (LAS-AF) Version 2.1.2 build 4530 software. Images were taken with a scanning frequency of 400 Hz. Background noise was averaged by an eight-fold repetition of the scan process. The cyclic hybrids were excited at 532 nm, MitoTracker® Green at 488 nm, and Hoechst 33342 at 405 nm. The exposure was set to minimize oversaturated pixels in the final images. Fluorescence emission was measured at 570–620 nm for the detection of rhodamine B labeled hybrids, at 490–540 nm for the detection of mitochondria, and 430–490 nm for the detection of nuclei.

SMILES	IC50 at 72 h [1]	Cellular uptake efficiency [2]	Organellar localization (mitochondria) [2]
CCN(CC)c1ccc2c(-c3ccccc3C(=O)NCCCCN3CC(=O)N[C@@H](Cc4ccccc4)C(=O)N(Cc4ccccc4)CC(=O)N(Cc4ccccc4)CC3=O)c3ccc(=[N+](CC)CC)cc-3oc2c1 [15-Rhod, cyclo-(l-Phe-N1ph-N1ph-N4am(Rhod))] (cyclo(F[Nphe][Nphe][Nlys](RhodamineB)))	> 50 µM	–	–
CCN(CC)c1ccc2c(-c3ccccc3C(=O)NCCCCN3CC(=O)N(Cc4ccccc4)CC(=O)N[C@@H](Cc4ccccc4)C(=O)N(Cc4ccc(Cl)cc4)CC3=O)c3ccc(=[N+](CC)CC)cc-3oc2c1 [16-Rhod, cyclo-(l-Phe-N1ph^pCl-N4am(Rhod)-N1ph)] (cyclo(F[Gly(Nα-4-Cl-benzyl)][Nlys](RhodamineB)[Nphe]))	30 µM	–	–
CCCCN1CC(=O)N(Cc2ccccc2)CC(=O)N(CCCCNC(=O)c2ccccc2-c2c3ccc(=[N+](CC)CC)cc-3oc3cc(N(CC)CC)ccc23)CC(=O)N[C@@H](Cc2ccccc2)C1=O [17-Rhod, cyclo-(l-Phe-N3m-N1ph-N4am(Rhod))] (cyclo(F[NBuGly][Nphe][Nlys](RhodamineB)))	> 50 µM	–	–
CCN(CC)c1ccc2c(-c3ccccc3C(=O)NCCCCN3CC(=O)N[C@@H](Cc4ccc(O)cc4)C(=O)N[C@@H](Cc4ccccc4)C(=O)N(Cc4ccccc4)CC3=O)c3ccc(=[N+](CC)CC)cc-3oc2c1 [18-Rhod, cyclo-(l-Phe-N4am(Rhod)-N1ph-l-Tyr)] (cyclo(F[Nphe][Nlys](RhodamineB)Y))	33 µM	not internalized	–
CCN(CC)c1ccc2c(-c3ccccc3C(=O)NCCCC[C@@H]3NC(=O)CN(Cc4ccccc4)C(=O)CN(Cc4ccccc4)C(=O)[C@H](Cc4c[nH]c5ccccc45)NC3=O)c3ccc(=[N+](CC)CC)cc-3oc2c1 [19-Rhod, cyclo-(l-Trp-N1ph-N1ph-l-Lys(Rhod))] (cyclo(K(RhodamineB)W[Nphe][Nphe]))	34 µM	–	–
CCN(CC)c1ccc2c(-c3ccccc3C(=O)NCCCC[C@@H]3NC(=O)CN(Cc4ccc(Cl)cc4)C(=O)CN(Cc4ccc(Cl)cc4)C(=O)[C@H](Cc4c[nH]c5ccccc45)NC3=O)c3ccc(=[N+](CC)CC)cc-3oc2c1 [20-Rhod, cyclo-(l-Trp-N1ph^pCl-N1ph^pCl-l-Lys(Rhod))] (cyclo([Gly(Nα-4-Cl-benzyl)][Gly(Nα-4-Cl-benzyl)]K(RhodamineB)W))	> 50 µM	–	–
CCCCN1CC(=O)N[C@@H](CCCCNC(=O)c2ccccc2-c2c3ccc(=[N+](CC)CC)cc-3oc3cc(N(CC)CC)ccc23)C(=O)N[C@@H](Cc2ccc(O)cc2)C(=O)N(CCCC)CC1=O [21-Rhod, cyclo-(l-Tyr-N3m-N3m-l-Lys(Rhod))] (cyclo(K(RhodamineB)Y[NBuGly][NBuGly]))	36 µM	–	–
CCN(CC)c1ccc2c(-c3ccccc3C(=O)NCCCCN3CC(=O)N(Cc4ccc(Cl)cc4)CC(=O)N(Cc4ccc(Cl)cc4)CC(=O)N(Cc4ccc(Cl)cc4)CC(=O)N[C@@H](Cc4ccccc4)C(=O)N[C@@H](Cc4ccccc4)C3=O)c3ccc(=[N+](CC)CC)cc-3oc2c1 [23-Rhod, cyclo-(l-Phe-N1ph^pCl-N1ph^pCl-N1ph^pCl-N4am(Rhod)-l-Phe)] (cyclo(F[Nlys](RhodamineB)[Gly(Nα-4-Cl-benzyl)][Gly(Nα-4-Cl-benzyl)][Gly(Nα-4-Cl-benzyl)]F))	6 µM	significantly less efficient	Mitochondrial accumulation
CCCCN1CC(=O)N[C@@H](Cc2ccccc2)C(=O)N[C@@H](Cc2ccccc2)C(=O)N(CCCCNC(=O)c2ccccc2-c2c3ccc(=[N+](CC)CC)cc-3oc3cc(N(CC)CC)ccc23)CC(=O)N(Cc2ccccc2)CC(=O)N(CCCC)CC1=O [24-Rhod, cyclo-(l-Phe-N3m-N3m-N1ph-N4am(Rhod)-l-Phe)] (cyclo(F[Nlys](RhodamineB)[Nphe][NBuGly][NBuGly]F))	26 µM	efficiently taken up; also recorded: high cellular uptake efficiency	mitochondrial specificity
NCCCC[C@@H]1NC(=O)CN(Cc2ccc(Cl)cc2)C(=O)CN(Cc2ccc(Cl)cc2)C(=O)[C@H](Cc2c[nH]c3ccccc23)NC1=O [compound 20, cyclo-(l-Trp-N1ph^pCl-N1ph^pCl-l-Lys)] (cyclo([Gly(Nα-4-Cl-benzyl)][Gly(Nα-4-Cl-benzyl)]KW))	> 50 µM	–	–
CCCCN1CC(=O)N[C@@H](CCCCN)C(=O)N[C@@H](Cc2ccc(O)cc2)C(=O)N(CCCC)CC1=O [compound 21, cyclo-(l-Tyr-N3m-N3m-l-Lys)] (cyclo(KY[NBuGly][NBuGly]))	> 50 µM	–	–
NCCCCN1CC(=O)N[C@@H](Cc2ccccc2)C(=O)N[C@@H](Cc2ccccc2)C(=O)N(Cc2ccccc2)CC(=O)N(Cc2ccccc2)CC(=O)N(Cc2ccccc2)CC1=O [compound 22, cyclo-(l-Phe-N1ph-N1ph-N1ph-N4am-l-Phe)] (cyclo(FF[Nphe][Nphe][Nphe][Nlys]))	> 50 µM	–	–
NCCCCN1CC(=O)N[C@@H](Cc2ccccc2)C(=O)N[C@@H](Cc2ccccc2)C(=O)N(Cc2ccc(Cl)cc2)CC(=O)N(Cc2ccc(Cl)cc2)CC(=O)N(Cc2ccc(Cl)cc2)CC1=O [compound 23, cyclo-(l-Phe-N1ph^pCl-N1ph^pCl-N1ph^pCl-N4am-l-Phe)] (cyclo(FF[Gly(Nα-4-Cl-benzyl)][Gly(Nα-4-Cl-benzyl)][Gly(Nα-4-Cl-benzyl)][Nlys]))	20 µM	–	–

The next lines start with results.

IC50 at 72 h [1]	SMILES	Cellular uptake efficiency [2]	Organellar localization (mitochondria) [2]
> 50 µM	NCCCCN1CC(=O)N[C@@H](Cc2ccccc2)C(=O)N(Cc2ccccc2)CC(=O)N(Cc2ccccc2)CC1=O [compound 15, cyclo-(l-Phe-N1ph-N1ph-N4am)] (cyclo(F[Nphe][Nphe][Nlys]))	–	–
> 50 µM	NCCCCN1CC(=O)N(Cc2ccccc2)CC(=O)N[C@@H](Cc2ccccc2)C(=O)N(Cc2ccc(Cl)cc2)CC1=O [compound 16, cyclo-(l-Phe-N1ph^pCl-N4am-N1ph)] (cyclo(F[Gly(Nα-4-Cl-benzyl)][Nlys][Nphe]))	–	–
> 50 µM	CCCCN1CC(=O)N(Cc2ccccc2)CC(=O)N(CCCCN)CC(=O)N[C@@H](Cc2ccccc2)C1=O [compound 17, cyclo-(l-Phe-N3m-N1ph-N4am)] (cyclo(F[NBuGly][Nphe][Nlys]))	–	–
> 50 µM	NCCCCN1CC(=O)N(Cc2ccccc2)CC(=O)N[C@@H](Cc2ccc(O)cc2)C(=O)N[C@@H](Cc2ccccc2)C1=O [compound 18, cyclo-(l-Phe-N4am-N1ph-l-Tyr)] (cyclo(F[Nlys][Nphe]Y))	–	–
> 50 µM	NCCCC[C@@H]1NC(=O)CN(Cc2ccccc2)C(=O)CN(Cc2ccccc2)C(=O)[C@H](Cc2c[nH]c3ccccc23)NC1=O [compound 19, cyclo-(l-Trp-N1ph-N1ph-l-Lys)] (cyclo(KW[Nphe][Nphe]))	–	–
> 50 µM	CCCCN1CC(=O)N(Cc2ccccc2)CC(=O)N(CCCCN)CC(=O)N[C@@H](Cc2ccccc2)C(=O)N[C@@H](Cc2ccccc2)C(=O)N(CCCC)CC1=O [compound 24, cyclo-(l-Phe-N3m-N3m-N1ph-N4am-l-Phe)] (cyclo(FF[NBuGly][NBuGly][Nphe][Nlys]))	–	–
